Results as given in PMC11173508, “Pharmacokinetics and Tissue Distribution of Itampolin A following Intragastric and Intravenous Administration in Rats Using Ultra-High-Performance Liquid Chromatography–Tandem Mass Spectrometry” (Molecules, 2024).

Columns and labels:
[1] = Tissue distribution study in rats after intragastric administration; assay type: in vivo, Sprague–Dawley rats; conditions: intragastric 25 mg/kg
Protocol: Sprague–Dawley rats (250 ± 20 g) were supplied from the Experimental Animal Centre of China Medical University (Shenyang, China) and housed under unified conditions. All of the animal experiments were conducted in compliance with the Guidelines for Care and Use of Laboratory Animals of China Medical University and the protocols were approved by the Animal Ethics Committee of the institution (code number: CMU2023205). The rats were raised in a standard environment with a temperature of 24 ± 2 °C, relative humidity of 55 ± 10%, and 12 h light/12 h dark cycles. These rats were acclimatized to the environment for at least one week before the experiment, provided free access to drinking water, and fed during this period. Twenty-four SD rats, which were divided into four groups (six rats per group), received 5 mg/kg itampolin A by intravenous administration or 10, 25, and 50 mg/kg itampolin A by intragastric administration for the pharmacokinetics experiments. Twenty SD rats (five rats for each time point) received 25 mg/kg itampolin A by intragastric administration for the tissue distribution study.
Various tissues (heart, liver, spleen, lung, kidney, brain, intestine, and stomach) were harvested and washed with ice-cold 0.9% sodium chloride solution to remove the superficial blood. After being blotted dry with filter paper, each tissue sample weighed accurately was homogenized in 0.9% sodium chloride solution (1:5, w/v). Then, 100 µL of tissue homogenate was taken and processed further like the plasma sample.
Twenty Sprague–Dawley rats were randomly divided into four groups (five rats each) and received a single dose of 25 mg/kg of itampolin A via intragastric administration. The rats were executed by cervical dislocation at 1, 4, 8, and 12 h. Afterwards, various tissue samples, including heart, liver, spleen, lung, kidney, brain, intestine, and stomach, were collected into centrifuged tubes, and then processed with the methods described in “3.5. Sample Preparation”.

[2] = test system: non-small-cell lung cancer; parameters: method as in doi:10.2174/1570179414666170215092631; conditions: cited from earlier work
[3] = Solubility in normal saline; assay type: physicochemical
[4] = Stability of itampolin A in biological samples under different storage conditions; assay type: physicochemical, rat; conditions: n = 5, in %
Protocol: The stability of itampolin A was investigated by analyzing five replicates of the samples at three QC levels (3, 40, and 1280 ng/mL) under different storage conditions: (1) 4 h exposure at room temperature, (2) 24 h storage in the autosampler at 4 °C, (3) three freeze–thaw cycles, and (4) storage at −80 °C for 30 days. The samples were considered stable if the average percentage concentration deviation was within 15% of the actual value.

[5] = measured within 12 h, mean ± SD, n = 5

concentration in the brain [1]: lower concentration in the brain
highest concentration in intestine [1, 5]: 378.2 ± 36.8 ng/mL
highest concentration in kidney [1, 5]: 497.7 ± 51.9 ng/mL
highest concentration in liver [1, 5]: 418.8 ± 40.3 ng/mL
highest concentration in lung [1, 5]: 800.6 ± 79.0 ng/mL
highest concentration in stomach [1, 5]: 429.6 ± 27.2 ng/mL
solubility in normal saline [3]: small
Stability, Autosampler 4 °C for 24 h ([4]; brain, spiked 3 ng/mL): 98.3 ± 5.8
Stability, Long-Term (at −80 °C for 30 Days) ([4]; brain, spiked 3 ng/mL): 94.3 ± 8.7
Stability, Short-Term (at Room Temperature for 4 h) ([4]; brain, spiked 3 ng/mL): 112.6 ± 3.9
Stability, Three Freeze–Thaw Cycles ([4]; brain, spiked 3 ng/mL): 99.5 ± 6.3
Stability, Autosampler 4 °C for 24 h ([4]; brain, spiked 40 ng/mL): 108.0 ± 4.0
Stability, Long-Term (at −80 °C for 30 Days) ([4]; brain, spiked 40 ng/mL): 95.0 ± 2.9
Stability, Short-Term (at Room Temperature for 4 h) ([4]; brain, spiked 40 ng/mL): 99.9 ± 10.9
Stability, Three Freeze–Thaw Cycles ([4]; brain, spiked 40 ng/mL): 93.7 ± 7.8
Stability, Autosampler 4 °C for 24 h ([4]; brain, spiked 1280 ng/mL): 96.8 ± 8.3
Stability, Long-Term (at −80 °C for 30 Days) ([4]; brain, spiked 1280 ng/mL): 94.6 ± 5.7
Stability, Short-Term (at Room Temperature for 4 h) ([4]; brain, spiked 1280 ng/mL): 99.7 ± 2.9
Stability, Three Freeze–Thaw Cycles ([4]; brain, spiked 1280 ng/mL): 104.3 ± 2.6
Stability, Autosampler 4 °C for 24 h ([4]; heart, spiked 3 ng/mL): 87.2 ± 7.2
Stability, Long-Term (at −80 °C for 30 Days) ([4]; heart, spiked 3 ng/mL): 103.3 ± 6.8
Stability, Short-Term (at Room Temperature for 4 h) ([4]; heart, spiked 3 ng/mL): 97.7 ± 3.6
Stability, Three Freeze–Thaw Cycles ([4]; heart, spiked 3 ng/mL): 94.3 ± 6.5
Stability, Autosampler 4 °C for 24 h ([4]; heart, spiked 40 ng/mL): 103.9 ± 3.5
Stability, Long-Term (at −80 °C for 30 Days) ([4]; heart, spiked 40 ng/mL): 97.4 ± 5.3
Stability, Short-Term (at Room Temperature for 4 h) ([4]; heart, spiked 40 ng/mL): 100.3 ± 2.6
Stability, Three Freeze–Thaw Cycles ([4]; heart, spiked 40 ng/mL): 108.3 ± 9.7
Stability, Autosampler 4 °C for 24 h ([4]; heart, spiked 1280 ng/mL): 94.0 ± 7.3
Stability, Long-Term (at −80 °C for 30 Days) ([4]; heart, spiked 1280 ng/mL): 95.3 ± 5.4
Stability, Short-Term (at Room Temperature for 4 h) ([4]; heart, spiked 1280 ng/mL): 89.3 ± 5.3
Stability, Three Freeze–Thaw Cycles ([4]; heart, spiked 1280 ng/mL): 98.9 ± 4.9
Stability, Autosampler 4 °C for 24 h ([4]; intestine, spiked 3 ng/mL): 99.5 ± 5.3
Stability, Long-Term (at −80 °C for 30 Days) ([4]; intestine, spiked 3 ng/mL): 96.3 ± 7.9
Stability, Short-Term (at Room Temperature for 4 h) ([4]; intestine, spiked 3 ng/mL): 100.1 ± 6.1
Stability, Three Freeze–Thaw Cycles ([4]; intestine, spiked 3 ng/mL): 108.7 ± 2.9
Stability, Autosampler 4 °C for 24 h ([4]; intestine, spiked 40 ng/mL): 106.4 ± 8.9
Stability, Long-Term (at −80 °C for 30 Days) ([4]; intestine, spiked 40 ng/mL): 85.9 ± 7.4
Stability, Short-Term (at Room Temperature for 4 h) ([4]; intestine, spiked 40 ng/mL): 101.3 ± 2.3
Stability, Three Freeze–Thaw Cycles ([4]; intestine, spiked 40 ng/mL): 98.3 ± 5.0
Stability, Autosampler 4 °C for 24 h ([4]; intestine, spiked 1280 ng/mL): 102.3 ± 4.1
Stability, Long-Term (at −80 °C for 30 Days) ([4]; intestine, spiked 1280 ng/mL): 89.0 ± 7.9
Stability, Short-Term (at Room Temperature for 4 h) ([4]; intestine, spiked 1280 ng/mL): 99.7 ± 3.3
Stability, Three Freeze–Thaw Cycles ([4]; intestine, spiked 1280 ng/mL): 107.5 ± 8.2
Stability, Autosampler 4 °C for 24 h ([4]; kidney, spiked 3 ng/mL): 93.0 ± 8.9
Stability, Long-Term (at −80 °C for 30 Days) ([4]; kidney, spiked 3 ng/mL): 89.1 ± 7.1
Stability, Short-Term (at Room Temperature for 4 h) ([4]; kidney, spiked 3 ng/mL): 98.6 ± 4.0
Stability, Three Freeze–Thaw Cycles ([4]; kidney, spiked 3 ng/mL): 97.1 ± 6.7
Stability, Autosampler 4 °C for 24 h ([4]; kidney, spiked 40 ng/mL): 100.7 ± 7.6
Stability, Long-Term (at −80 °C for 30 Days) ([4]; kidney, spiked 40 ng/mL): 97.3 ± 8.5
Stability, Short-Term (at Room Temperature for 4 h) ([4]; kidney, spiked 40 ng/mL): 106.8 ± 7.3
Stability, Three Freeze–Thaw Cycles ([4]; kidney, spiked 40 ng/mL): 98.4 ± 5.0
Stability, Autosampler 4 °C for 24 h ([4]; kidney, spiked 1280 ng/mL): 92.7 ± 4.2
Stability, Long-Term (at −80 °C for 30 Days) ([4]; kidney, spiked 1280 ng/mL): 110.4 ± 5.9
Stability, Short-Term (at Room Temperature for 4 h) ([4]; kidney, spiked 1280 ng/mL): 99.8 ± 8.1
Stability, Three Freeze–Thaw Cycles ([4]; kidney, spiked 1280 ng/mL): 98.8 ± 3.6
Stability, Autosampler 4 °C for 24 h ([4]; liver, spiked 3 ng/mL): 96.3 ± 8.2
Stability, Long-Term (at −80 °C for 30 Days) ([4]; liver, spiked 3 ng/mL): 93.7 ± 5.1
Compound: COc1c(Br)cc(C[C@H](NC(=O)Cc2ccc(OCCCNC(C)=O)cc2)C(=O)NCCc2cc(Br)c(O)c(Br)c2)cc1Br [itampolin A, Itampolin A]
distribution in the heart and spleen [1]: low distribution level and rapid elimination
anticancer activity against non-small-cell lung cancer [2]: significant anticancer activity
